The text below walks through data of patent US12590953B2, “Methods for screening cereblon modifying compounds” (CELGENE CORPORATION, priority 2018, dated 2026).

The test system of one test is SALL4 mRNA. As to the kind of experiment: qRT-PCR of SALL4 mRNA in human iPS cells. In kind it is cell-based. As to conditions: 20 μM thalidomide, 16 hours, normalized with GAPDH. The method, then:
Quantitative RT-PCR analysis was performed to human iPS cells treated with DMSO or 20 μM thalidomide (THA) for 16 hours. The relative mRNA level of SALL4 and POU5F1(OCT4) was normalized with GAPDH (n=2, biological replicates).
Total RNA was extracted from human iPS cells using RNeasy Mini Kit (Qiagen) according to manufacturer's instruction, and reverse-transcribed into first-strand cDNA with random primer using SuperScript™ IV First-Strand Synthesis System (ThermoFisher). Real-time PCR was performed in triplicate using ViiA 7 Real-Time PCR System with TaqMan Gene Expression Assay probes (ThermoFisher) for SALL4 (#4351372), POU5F1(#4331182) and GAPDH (#4326317E).
On the technique in general: Real-time PCR tracks product formation cycle by cycle.

Test [1] has as its target T1, SALL4 zinc finger domains / cereblon-CRL4 (Homo sapiens, UniProt Q96SW2+Q9UJQ4, G416A).
T1 construct: Human cereblon-DDB1 (cereblon amino acids 40-442 and full length DDB1); The first zinc finger domain encompasses amino acid residues 405-432; ZZ-domain-6xHis-thrombin site (N, cleaved yes); made in house; host or cells: SF9 insect cells (cereblon-DDB1, Cul4A-Rbx1); E. coli BL21 (DE3) Star (MBP-zinc finger)
As to the kind of experiment: In vitro ubiquitination of human SALL4 zinc fingers by human cereblon-CRL4. In kind it is biochemical. As to conditions: compared with wild-type ZF2; with thalidomide. The method, then:
(§1) Purified E1, E2, ubiquitin, Cul4A-Rbx1, cereblon-DDB1, and GSPT1 proteins were used to reconstitute the ubiquitination of MBP-fused WT and mutant proteins in vitro. Substrate proteins purified by maltose affinity resin (NEB) were incubated at an approximate concentration of 30 uM. Ubiquitination components described briefly: Human cereblon-DDB1 (cereblon amino acids 40-442 and full length DDB1) and 6×his-DDB1 alone were co-expressed in SF9 insect cells in the presence of 50 μM zinc acetate, and purified by nickel affinity resin (Qiagen), HiTrap ANX column ion exchange (GE Healthcare), and Sephacryl 400 16/60 size exclusion chromatography (GE healthcare). Human full length Cul4A and Rbx1 were co-expressed in SF9 insect cells and purified by nickel affinity resin and Superdex 200 16/60 size exclusion chromatography. Purified recombinant human Ube1 E1 (E-305), UbcH5a E2 (E2-616), and ubiquitin (U-100H) were purchased from R&D systems. Components were mixed to final concentrations of 10 mM ATP, 1 μM Ube1, 25 μM UbcH5a, 200 μM Ub, 1 μM Cul4-Rbx1, 25 μM GSPT1, and 1 μM cereblon-DDB1, with or without 100 μM compound as indicated in ubiquitination assay buffer (20 mM HEPES pH 7.5, 150 mM NaCl, 10 mM MgCl2). After preincubation of E1, E2, ATP and ubiquitin for 30 minutes, and separate pre-incubation of MBP-substrate, CRBN-DDB1, Cul4-Rbx1, and compound for 5 minutes at room temperature, ubiquitination reactions were started by mixing the two pre-incubations. Reactions were incubated at 30 C for 2 hours before separation by SDS-PAGE followed by coomassie staining or immunoblot analysis.
(§2) SALL4 contains 7 zinc finger domains, 4 of which have a glycine at the same position as cereblon substrates Ikaros and Aiolos. In this example, four domains containing these 4 glycine-containing zinc fingers were tested for compound-dependent ubiquitination by cereblon-CRL4 in a fully purified, in vitro ubiquitination system (see FIG. 1). The first zinc finger domain encompasses amino acid residues 405-432, which has a sequence of […] (SEQ ID NO: 3). The second zinc finger domain encompasses amino acid residues 589-616, which has a sequence of […] (SEQ ID NO: 4). The third zinc finger domain encompasses amino acid residues 865-892, which has a sequence of […] (SEQ ID NO: 5). The fourth zinc finger domain encompasses amino acid residues 893-920, which has a sequence of […] (SEQ ID NO: 6). Ikaros zinc finger domain (amino acid residues 140-168) was used as a control, which has a sequence of […] (SEQ ID NO: 7).
(§3) More specifically, individual zinc finger domains of SALL4 were expressed in E. coli and purified via an MBP tag. Purified zinc fingers were then tested in an in vitro ubiquitination assay for cereblon binding and ubiquitination. Purified zinc fingers were incubated with purified cereblon-CRL4 ubiquitin ligase complex and purified ubiquitination cascade components Uba1, UbcH5a, UbcH5b, ATP, and ubiquitin.
(§4) Ikaros and Aiolos harbor this motif within a zinc finger domain. 4 of them contain a glycine at the position necessary to mediate cereblon binding (see FIG. 1B). The human version of these four individual zinc fingers were expressed and purified for testing in our in vitro cereblon-CRL4 ubiquitination assay (see FIG. 1C). […] The existence of preferred zinc finger domains is highly reminiscent of the cereblon substrates Ikaros and Aiolos, where a single zinc finger motif mediates cereblon recruitment and degradation.

For test [2], the target named is T2, SALL4 zinc finger domains / cereblon-CRL4 (Homo sapiens, UniProt Q96SW2+Q9UJQ4).
T2 construct: Human cereblon-DDB1 (cereblon amino acids 40-442 and full length DDB1); The first zinc finger domain encompasses amino acid residues 405-432; ZZ-domain-6xHis-thrombin site (N, cleaved yes); made in house; host or cells: SF9 insect cells (cereblon-DDB1, Cul4A-Rbx1); E. coli BL21 (DE3) Star (MBP-zinc finger)
The test is described as above. Format: biochemical. As to conditions: MBP-tagged zinc finger, thalidomide vs DMSO. The method, then:
as §1, §2, §3, §4

The target in test [3] is T3, SALL4 zinc finger domains / cereblon-CRL4 (Homo sapiens, UniProt Q96SW2+Q9UJQ4, G600A).
T3 construct: Human cereblon-DDB1 (cereblon amino acids 40-442 and full length DDB1); The first zinc finger domain encompasses amino acid residues 405-432; ZZ-domain-6xHis-thrombin site (N, cleaved yes); made in house; host or cells: SF9 insect cells (cereblon-DDB1, Cul4A-Rbx1); E. coli BL21 (DE3) Star (MBP-zinc finger)
Described as above. Format: biochemical. As to conditions: compared with wild-type ZF4; with thalidomide. The method, then: as §1, §2, §3, §4

Structures are written as SMILES. “Also recorded” adds a separate entry of the source.

T1 sequence (Q96SW2 40-442, stated change not applied): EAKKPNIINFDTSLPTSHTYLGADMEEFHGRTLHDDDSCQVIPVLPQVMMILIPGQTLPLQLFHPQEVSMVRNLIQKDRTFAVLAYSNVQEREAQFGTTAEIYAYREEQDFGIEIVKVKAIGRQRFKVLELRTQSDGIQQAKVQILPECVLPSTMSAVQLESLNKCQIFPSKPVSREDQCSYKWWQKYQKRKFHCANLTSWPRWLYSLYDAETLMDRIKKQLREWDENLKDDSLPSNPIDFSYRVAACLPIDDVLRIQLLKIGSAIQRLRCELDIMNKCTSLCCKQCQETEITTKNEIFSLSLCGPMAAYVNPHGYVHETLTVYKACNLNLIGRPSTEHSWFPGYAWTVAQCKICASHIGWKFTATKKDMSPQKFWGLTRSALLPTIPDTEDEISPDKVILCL
T1 sequence (Q9UJQ4 405-432 G416A): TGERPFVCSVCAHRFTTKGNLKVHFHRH
T1 sequence (Q16531 whole entry partner, the tested form may be a part): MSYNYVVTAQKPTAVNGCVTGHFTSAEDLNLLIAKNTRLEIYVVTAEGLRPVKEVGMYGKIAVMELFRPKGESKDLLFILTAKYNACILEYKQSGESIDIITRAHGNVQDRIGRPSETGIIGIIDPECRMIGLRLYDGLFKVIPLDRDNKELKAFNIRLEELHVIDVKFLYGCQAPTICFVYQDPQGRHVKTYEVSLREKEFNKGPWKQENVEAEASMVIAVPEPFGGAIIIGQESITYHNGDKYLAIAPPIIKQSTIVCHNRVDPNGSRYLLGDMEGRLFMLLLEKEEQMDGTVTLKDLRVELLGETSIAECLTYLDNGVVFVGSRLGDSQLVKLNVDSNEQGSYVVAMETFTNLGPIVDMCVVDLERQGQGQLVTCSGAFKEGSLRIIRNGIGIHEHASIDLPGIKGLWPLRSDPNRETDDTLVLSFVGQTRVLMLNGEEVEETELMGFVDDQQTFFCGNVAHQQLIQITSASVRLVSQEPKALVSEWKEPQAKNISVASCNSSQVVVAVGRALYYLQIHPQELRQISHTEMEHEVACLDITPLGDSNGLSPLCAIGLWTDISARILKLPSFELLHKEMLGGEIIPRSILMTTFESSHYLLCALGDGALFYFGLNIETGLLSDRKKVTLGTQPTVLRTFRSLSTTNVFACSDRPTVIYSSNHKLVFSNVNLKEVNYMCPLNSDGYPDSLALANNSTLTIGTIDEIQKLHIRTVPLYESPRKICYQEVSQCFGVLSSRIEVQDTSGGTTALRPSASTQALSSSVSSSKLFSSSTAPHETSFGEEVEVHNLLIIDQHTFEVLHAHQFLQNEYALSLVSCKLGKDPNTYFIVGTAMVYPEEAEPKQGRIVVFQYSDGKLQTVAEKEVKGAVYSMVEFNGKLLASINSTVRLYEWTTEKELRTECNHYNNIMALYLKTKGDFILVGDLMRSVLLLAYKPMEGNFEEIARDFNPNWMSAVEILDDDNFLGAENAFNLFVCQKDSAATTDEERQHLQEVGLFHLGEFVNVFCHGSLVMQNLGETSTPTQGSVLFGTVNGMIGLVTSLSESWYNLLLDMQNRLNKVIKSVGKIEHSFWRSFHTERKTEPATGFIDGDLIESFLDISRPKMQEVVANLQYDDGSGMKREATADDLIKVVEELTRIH
T1 sequence (Q13619 whole entry partner, the tested form may be a part): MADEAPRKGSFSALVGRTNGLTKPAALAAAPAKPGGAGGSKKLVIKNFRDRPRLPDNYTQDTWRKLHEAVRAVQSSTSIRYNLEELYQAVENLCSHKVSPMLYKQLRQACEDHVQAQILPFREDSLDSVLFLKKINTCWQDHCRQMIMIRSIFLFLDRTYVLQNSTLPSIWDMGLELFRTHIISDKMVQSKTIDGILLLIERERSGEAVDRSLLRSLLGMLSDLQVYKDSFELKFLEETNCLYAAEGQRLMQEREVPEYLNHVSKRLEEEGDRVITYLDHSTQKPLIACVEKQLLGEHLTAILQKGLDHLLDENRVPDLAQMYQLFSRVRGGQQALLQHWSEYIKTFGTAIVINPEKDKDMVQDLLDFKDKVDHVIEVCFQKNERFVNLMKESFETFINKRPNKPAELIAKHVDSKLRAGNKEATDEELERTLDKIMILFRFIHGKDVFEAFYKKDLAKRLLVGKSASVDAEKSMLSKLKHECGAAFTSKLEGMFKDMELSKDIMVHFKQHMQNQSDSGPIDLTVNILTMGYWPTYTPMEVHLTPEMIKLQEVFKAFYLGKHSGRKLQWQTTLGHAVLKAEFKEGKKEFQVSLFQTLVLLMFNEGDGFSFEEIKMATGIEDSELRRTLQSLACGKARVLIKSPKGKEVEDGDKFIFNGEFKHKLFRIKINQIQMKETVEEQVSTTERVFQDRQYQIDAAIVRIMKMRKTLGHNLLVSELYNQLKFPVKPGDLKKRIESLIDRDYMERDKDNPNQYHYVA
T1 sequence (P62877 whole entry partner, the tested form may be a part): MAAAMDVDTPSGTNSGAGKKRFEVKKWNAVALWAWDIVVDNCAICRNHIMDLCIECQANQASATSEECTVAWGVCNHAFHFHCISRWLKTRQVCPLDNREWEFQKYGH
T3 sequence (Q96SW2 40-442): as the sequence (Q96SW2 40-442, stated change not applied) above
T3 sequence (Q9UJQ4 589-616 G600A): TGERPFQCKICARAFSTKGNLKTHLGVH
T3 sequence (Q16531 whole entry partner, the tested form may be a part): as the sequence (Q16531 whole entry partner, the tested form may be a part) above
T3 sequence (Q13619 whole entry partner, the tested form may be a part): as the sequence (Q13619 whole entry partner, the tested form may be a part) above
T3 sequence (P62877 whole entry partner, the tested form may be a part): as the sequence (P62877 whole entry partner, the tested form may be a part) above

For the molecule `O=C1CCC(N2C(=O)c3ccccc3C2=O)C(=O)N1` (stereo not drawn) [thalidomide], the “SALL4 mRNA levels” value in the test with SALL4 mRNA is “not reduced by thalidomide treatment (FIG. 7E), and are instead increased; also recorded: decrease in SALL4 protein levels is not due to transcriptional downregulation”. In test [1], the “Ubiquitination of G416A mutant SALL4 zinc finger 2” value is reported as “significantly reduced upon mutation of the glycine to alanine; also recorded: significantly reduced ubiquitination”. For the same molecule, in test [2], the “Ubiquitination of SALL4 zinc finger 2 (ZF2, a.a. 410-432) by cereblon-CRL4” value was “robustly ubiquitinated in a thalidomide-dependent manner; also recorded: efficiently ubiquitinated by cereblon-CRL4 in a thalidomide-dependent manner; also recorded: efficiently ubiquitinated by human cereblon in a thalidomide-dependent manner” and the “Ubiquitination of SALL4 zinc finger 4 (ZF4, a.a. 594-616) by cereblon-CRL4” value is “also ubiquitinated in the presence of thalidomide, but more weakly; also recorded: weak ubiquitination”. Further, in test [2] (100 μM compound), the “Ubiquitination of SALL4 zinc finger domain a.a. 405-432 by cereblon-CRL4” value was “observed only in the presence of cereblon modifying compound; also recorded: ubiquitinated in a thalidomide-dependent manner quite strongly; also recorded: predominantly ubiquitinated by cereblon-CRL4 in a thalidomide-dependent manner”. Further, in test [3], the “Ubiquitination of G600A mutant SALL4 zinc finger 4” value is reported as “significantly reduced upon mutation of the glycine to alanine”.
